Source: patent publication US7022737B2, “Manipulating nitrosative stress to kill pathologic microbes, pathologic helminths and pathologically proliferating cells or to upregulate nitrosative stress defenses” (Duke University, priority 1996, dated 2006)

Molecular target: T1, E. coli gamma-glutamylcysteine synthetase (Escherichia coli, UniProt P0A6W9)
T1 construct: made in house
Test: Inactivation of E. coli gamma-GCS by homocysteine sulfoximines (preincubation with ATP, residual activity by coupled PK/LDH assay)
Type: biochemical
Conditions: 100 μM inhibitor
Experimental: E. coli gamma-GCS was isolated from bacterial cells engineered to overexpress the enzyme; the isolation procedure was similar to that used previously to isolate mammalian gamma-GCS. […] The enzyme was assayed in reaction mixtures (final volume=1.0 ml) containing: 150 mM Tris·HCl, pH 8.2, 100 mM KCl, 25 mM MgCl2, 7.5 mM ATP, 7.5 mM phosphoenolpyruvate, 0.3 mM EDTA, 10 mM L-glutamate, 10 mM L-α-aminobutyrate (an L-cysteine analog), 0.3 mM NADH, 5 IU pyruvate kinase, and 5 IU lactate dehydrogenase. Reaction was initiated by adding gamma-GCS; in control studies, L-α-aminobutyrate was omitted from the reaction mixture. In this assay, pyruvate kinase (PK) and lactate dehydrogenase (LDH) are added in excess to detect formation of ADP, one of the products of the gamma-GCS reaction. The relevant enzyme reactions are shown as equations 1–3 below. Oxidation of NADH to NAD^+ is followed and quantitated spectrophotometrically at 340 nm (1 μmol oxidation gives ΔOD=−6.2) and is directly proportional to product formation by gamma-GCS. [drawing 2]
Inhibition by homocysteine sulfoximines was carried out by preincubating the E. coli gamma-GCS with potential inhibitors in the presence of ATP and then removing aliquots of that mixture at specific times and assaying for residual activity using the assay procedure described above. The preincubation reaction mixtures contained (final volume=400 μl) the following: 210 mM Tris·HCl, pH 8.2, 142 mM KCl, 36 mM MgCl2, 10 mM ATP, 0.4 mM EDTA, various amounts of sulfoximine, and gamma-GCS. At intervals, 50 μl aliquots were removed and added to 1.0 ml assay reaction mixtures to determine residual activity spectrophotometrically. Results of a study indicate that E. coli gamma-GCS loses about 27% of its activity over 30 minutes in the absence of added inhibitors; this loss of activity represents an inherent instability in the enzyme when incubated under these reaction conditions in this particular experiment. […]

T1 sequence (P0A6W9 whole entry): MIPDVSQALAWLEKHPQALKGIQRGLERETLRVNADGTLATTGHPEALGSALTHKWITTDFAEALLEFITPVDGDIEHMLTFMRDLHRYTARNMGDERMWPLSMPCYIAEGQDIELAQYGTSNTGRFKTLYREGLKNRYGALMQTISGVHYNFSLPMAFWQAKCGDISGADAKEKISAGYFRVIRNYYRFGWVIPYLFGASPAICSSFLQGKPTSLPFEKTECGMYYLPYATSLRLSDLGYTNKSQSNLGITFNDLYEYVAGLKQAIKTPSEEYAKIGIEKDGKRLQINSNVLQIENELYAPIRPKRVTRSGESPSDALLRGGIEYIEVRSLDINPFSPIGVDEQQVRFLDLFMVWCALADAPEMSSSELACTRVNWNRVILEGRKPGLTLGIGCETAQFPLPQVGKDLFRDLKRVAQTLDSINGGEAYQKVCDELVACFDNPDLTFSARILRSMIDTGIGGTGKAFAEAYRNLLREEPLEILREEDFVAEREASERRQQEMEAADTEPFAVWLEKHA

`CCCCS(=N)(=O)CC[C@H](N)C(=O)O` (stereo partly drawn) [L-buthionine-S-sulfoximine] was tested, and the “inactivation of E. coli gamma-GCS” value (10 min preincubation) was 89% and the “inactivation of E. coli gamma-GCS” value (30 min preincubation) was “virtually complete inactivation”.
